# Results: article PMC8556085, “Antimicrobial and Antioxidant Secondary Metabolites from Trifolium baccarinii Chiov. (Fabaceae) and Their Mechanisms of Antibacterial Action” (BioMed Research International, 2021)
# Marks after values point to notes of the source that are not given here.
# How the values were obtained:
# [1] = system: Escherichia coli S2(1); assay: Broth microdilution MIC/MMC; type: cell-based
# Procedure, shortened: (§1)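 In each well, sample dilutions met inoculum in MHB or SDB, giving final concentrations of 2048 to 0.125 μg/mL. Plates were shaken at 37°C for 24 h for bacteria, and at 30°C for 48 h for C. albicans or 72 h for C. neoformans, before visual MIC scoring.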
# [2] = system: Cryptococcus neoformans H99; assay: Broth microdilution MIC/MMC; type: cell-based
# Procedure, shortened: as §1
# [3] = system: Pseudomonas aeruginosa ATCC27853; assay: Broth microdilution MIC/MMC; type: cell-based
# Procedure, shortened: as §1
# [4] = system: methicillin-resistant Staphylococcus aureus 03 (MRSA03); assay: Broth microdilution MIC/MMC; type: cell-based
# Procedure, shortened: as §1
# [5] = system: Staphylococcus aureus ATCC25923; assay: Broth microdilution MIC/MMC; type: cell-based
# Procedure, shortened: as §1
# [6] = system: Candida albicans ATCC10231; assay: Broth microdilution MIC/MMC; type: cell-based
# Procedure, shortened: as §1
# [7] = system: methicillin-resistant Staphylococcus aureus 04 (MRSA04); assay: Broth microdilution MIC/MMC; type: cell-based
# Procedure, shortened: as §1
# [8] = system: Pseudomonas aeruginosa ATCC27853; assay: Bacteriolytic assay (time-kill kinetic method, OD600); type: cell-based; conditions: Pseudomonas aeruginosa suspension, 2xMIC, after 240 min, compared to the 0 time value
# Procedure: (§2) (1) Bacteriolytic Assay. […] Full growth of bacterium in MHB was diluted 100 times and incubated at 37°C to produce an OD600 of 0.8 as a starting inoculum. Sample solutions were added to the starting bacterial suspension to give a final concentration of 2xMIC and incubated at 37°C under agitation at 150 rpm. After the incubation period corresponding to 0, 15, 30, 60, 120, and 240 min, 100 μL was pipetted from each tube and the optical density was recorded at 600 nm using the Biobase UV-Vis spectrophotometer. Corresponding dilutions of test samples were used as blanks. Oxacillin was used as a positive control, and the tubes without an extract/compound served as negative controls. All the measurements were done in triplicate and repeated three times.
# [9] = system: Staphylococcus aureus ATCC25923; assay: as above; type: cell-based; conditions: Staphylococcus aureus ATCC25923 suspension, 2xMIC, after 240 min, compared to the 0 time value
# Procedure: as §2
# [10] = system: Staphylococcus aureus; assay: Loss of salt tolerance; type: cell-based; conditions: pretreatment 1/2xMIC, MIC, 2xMIC for 1 h; MHA-NaCl 50, 60, 70 g/L
# Procedure: (2) Loss of Salt Tolerance in Staphylococcus aureus. The ability of Staphylococcus aureus ATCC25923 and MRSA03 cells treated with the methanol extract and compound 5 to grow on Mueller-Hinton agar (MHA) supplemented with NaCl was investigated. In preliminary experiments, untreated suspensions of Staphylococcus aureus were plated on MHA supplemented with NaCl from 40 to 100 g/L. Plates were incubated. After incubation, the resulting colonies were counted. Concentrations of NaCl, 50, 60, and 70 g/L, which modestly compromised the colony-forming abilities of untreated microorganisms, were selected. For further experimentation steps, suspensions of bacteria were prepared as previously described and treated with the MeOH extract or compound 5 at 1/2xMIC, MIC, and 2xMIC. After 1 h incubation, samples were removed, serially diluted, and inoculated onto MHA and MHA-NaCl (50, 60, and 70 g/L). Bacterial culture without a sample was used as a control for each MHA-NaCl plate. Upon incubation, the numbers of CFU per milliliter on each MHA-NaCl plate were compared to those on the MHA plate, and the result was expressed as a percentage.
# [11] = Gallic acid equivalent antioxidant capacity (GEAC) assay; conditions: ABTS radical, 420 nm, 240 s; mean ± SD
# Procedure, shortened: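 Purified Sclerotinia sclerotiorum laccase oxidises ABTS in acetate buffer pH 5.0 (100 mM); ABTS●+ read at 420 nm after 240 s. Samples at 10–800 μg/mL (extracts) or 12.5–200 μg/mL (isolated compounds) in assay. Values expressed as gallic acid equivalents from a 0–84 μM gallic acid calibration curve; triplicates, three repeats.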
# [12] = Pseudomonas aeruginosa ATCC27853
# [13] = Staphylococcus aureus ATCC25923
substance,measurement,setting,value
"4,7,2′-trihydroxy-4′-methoxyisoflavanol [compound 5]",MMC,[1],16 µg/mL
same,MMC/MIC,[1],2
same,MIC,"[1]; 24 h, 37°C",8 µg/mL
same,MMC,[2]; Cryptococcus neoformans H99,8 µg/mL
same,MMC/MIC,[2]; Cryptococcus neoformans H99,1
same,MIC,"[2]; Cryptococcus neoformans H99, 72 h, 30°C",8 µg/mL
same,MMC,[3]; [12],8 µg/mL
same,MMC/MIC,[3]; [12],1
same,MIC,"[3]; Pseudomonas aeruginosa ATCC27853, 24 h, 37°C",8 µg/mL
same,MMC,[4]; MRSA03,32 µg/mL
same,MMC/MIC,[4]; MRSA03,2
same,MIC,"[4]; MRSA03, 24 h, 37°C",16 µg/mL
same,MMC,[5]; [13],8 µg/mL
same,MMC/MIC,[5]; [13],1
same,MIC,"[5]; Staphylococcus aureus ATCC25923, 24 h, 37°C",8 µg/mL
same,MMC,[6]; Candida albicans ATCC10231,16 µg/mL
same,MMC/MIC,[6]; Candida albicans ATCC10231,2
same,MIC,"[6]; Candida albicans ATCC10231, 48 h, 30°C",8 µg/mL
same,MMC,[7]; MRSA04,16 µg/mL
same,MMC/MIC,[7]; MRSA04,1
same,MIC,"[7]; MRSA04, 24 h, 37°C",16 µg/mL
same,decline in cell turbidity,[8],99.85%
same,decline in cell turbidity,[9],99.87%
same,number of colony-forming units on NaCl-supplemented media after pretreatment,[10],significant decrease
same,Gallic acid equivalent antioxidant capacity (GEAC),[11],61.05 ± 0.90^h μg/mL
